# Patent publication US20250134862A1, “PROCESS FOR TREATING LIVESTOCK EXPOSED TO TOXIC FORAGE USING MELATONIN COMPOSITIONS” (BOARD OF TRUSTEES OF THE UNIVERSITY OF ARKANSAS, priority 2022, published 2025)
# Tests used:
# [1] = system: pregnant beef cattle grazing toxic, endophyte-infected (E+) tall fescue; assay: Example 2: color Doppler ultrasound of uterine and coccygeal artery hemodynamics; format: in vivo
# Text: (§1) Multiparous crossbred cows were artificially inseminated with sex-sorted semen (Y chromosome-bearing sperm) from a single Angus sire and maintained on pastures free from E+ fescue prior to the start of the treatment period. Pregnant cows […] were assigned to one of three treatment groups based on body weight, with two replications per treatment: non-toxic, novel endophyte-infected (NE+) fescue without melatonin supplementation (NE+/NM; […]), E+ fescue with melatonin supplementation (E+/M; n=16), and E+ fescue without melatonin supplementation (E+/NM; n=18). Treatments were administered over a 70-d period between May and July (d 147±1 to 217±1 of gestation). A commercially available feed was mixed with or without melatonin [100 μg/kg body weight (BW)] and hand-fed daily.
# Cows were weighed every fourteen (14) days relative to the start of the 70-d treatment period (FIG. 16-17): i.e., at d 0, 14, 28, 42, 56, and 70. Measurements of plasma prolactin were obtained on d 70 of the treatment period by radioimmunoassay (FIG. 18). Color Doppler ultrasound of the uterine and coccygeal artery was conducted at d 68±1 of the treatment period. Cardiac cycle waveforms from three independent ultrasound scans were used to determine the following uterine artery measures (FIGS. 19-25) and coccygeal artery measures (FIGS. 26-30): diameter (cm), pulsatility index (PI), resistance index (RI), blood flow (BF; mL/min; equal to MnV*vessel area*60 s), and blood flow as a proportion of BW (BF/BW).
# After the treatment period, cattle were maintained together as a single group on pastures that were free from E+ fescue. Body weights were analyzed using the MIXED procedure of SAS specific for repeated measures with treatment, time, and the interaction as fixed effects and replicate as random. Arterial hemodynamics and prolactin measures were analyzed using the MIXED procedure of SAS with treatment as a fixed effect and replicate as a random effect. Ultrasonography day and order were tested as covariates and removed from the model […].
# [2] = system: offspring of dams that consumed endophyte-infected (E+) tall fescue seed; assay: Example 1: body composition (carcass) ultrasonography of calves at weaning; format: in vivo, cattle
# Text: (§2) After the training period, the heifers started a 70-day feeding trial (FIG. 2) to evaluate the influence of toxic fescue and melatonin on the developing fetus. To mimic the natural peak of ergot alkaloids in Kentucky 31 fescue, toxic fescue seed was fed with or without melatonin during the 70-day period between May and July. The feed trial period diet consisted of an ad libitum Bermuda grass hay and one of four (4) feed rations. The trial utilized a 2×2 factorial treatment arrangement (E− without melatonin, E−/NM; E− with melatonin, E−/M; E+ without melatonin, E+/NM; or E+ with melatonin, E+/M; melatonin dose: 100 μg/kg of BW) for a 70-d period between May and July starting at 160±13 days of gestation to mimic ergot alkaloid concentrations (ergot alkaloid dose: 13 μg/kg of BW) in a grazing scenario (FIG. 2). Each of the four feed ration treatments was represented in each of the two pens/groups of cattle (FIG. 1). All diets contained corn gluten and molasses and were fed using SmartFeed Pro (C-Lock Inc.) controlled feeding units between 0900 and 1400 h daily. Cattle were removed from dietary treatments 39±19 days before calving. Two replicates were housed separately in the open-air barn (FIG. 1), each with a 1.2-ha paddock. Before and following the 70-d treatment period, all cattle were maintained as a single group free from toxic fescue.
# (§3) Powdered melatonin (Cayman Chemical Company) was mixed into 100% ethanol and mixed with feed (fescue seed, corn gluten, and molasses) in a concrete mixer until the feed was dry (ethanol evaporates, and melatonin remains). Melatonin was dosed at about 100 μg/kg of body weight or about 50 mg/head/day for all groups. Ad libitum Bermuda grass hay was offered in an adjacent pasture area to encourage animals to leave the barn after consuming the feed ration during both the training and the feed trial period. After completion of the feed trial, heifers were maintained on fescue-free pastures at the Physiology Farm and supplemented as needed through calving and until their calves were weaned.
# Calves were weaned at 226±19 d of age. Gestation length, calf birth weight, 205-day adjusted weaning weight (205-d WW), carcass ultrasonography measures (ribeye area, REA: REA/CWT), percent intramuscular fat (IMF), rib fat thickness (UFAT), rump fat thickness (URUMP), post-weaning weights (recorded every 28 days between weaning and 84 days post-weaning), and post-weaning average daily gain (ADG) (between weaning and 84 days post-weaning) were evaluated in offspring (n=44) (FIGS. 6-13). Post-weaning calf weights were analyzed using the MIXED procedure of SAS specific for repeated measures with treatment and time as fixed effects and replicate as random. All other variables were analyzed using the MIXED procedure of SAS with treatment as a fixed effect and replicate as random with gestation length as a covariate for birth weight. Table 1 summarizes the gestation length and body weights of calves born to primiparous dams that consumed E- or E+ fescue seed with (M) or without melatonin (NM) supplementation during mid-late gestation. Data in Tables 1 and 2 are presented as LS MEANS±SEM.
# [3] = system: pregnant beef cattle grazing toxic, endophyte-infected (E+) tall fescue; assay: Example 2: plasma prolactin by radioimmunoassay on d 70 of the treatment period; format: in vivo; conditions: cows on E+ fescue with melatonin 100 μg/kg BW, d 70 of treatment
# Text: as §1
# Cows were weighed every fourteen (14) days relative to the start of the 70-d treatment period (FIG. 16-17): i.e., at d 0, 14, 28, 42, 56, and 70. […]
# After the treatment period, cattle were maintained together as a single group on pastures that were free from E+ fescue. Body weights were analyzed using the MIXED procedure of SAS specific for repeated measures with treatment, time, and the interaction as fixed effects and replicate as random. Arterial hemodynamics and prolactin measures were analyzed using the MIXED procedure of SAS with treatment as a fixed effect and replicate as a random effect. […]
# [4] = system: beef cows that grazed toxic, endophyte-infected tall fescue (E+) during gestation; assay: Example 3: estimated daily milk volume and weight from four-hour milk yields; format: in vivo, cattle; conditions: d 56, P<0.03
# Text: The same artificially inseminated cows were used in Example 3 that were used Example 2. As outlined above in Example 2, forty-nine (n=49) multiparous crossbred beef cows were artificially inseminated with sex-sorted semen (Y chromosome-bearing sperm) from a single Angus sire and maintained on pastures free from E+ fescue prior to the start of the treatment period. Pregnant cows were stratified into three treatment groups based on body weight, with two replications per treatment: non-toxic, novel endophyte-infected (NE+) tall fescue without melatonin supplementation (NE+/NM; n=15), E+ fescue with melatonin supplementation (E+/M; n=16), and E+ fescue without melatonin supplementation (E+/NM; n=18). The treatment period was over 70 d between May and July (d 147±1 to 217-1 of gestation). […]
# After birth, calves were castrated within 48-72 hours. […] Protein, lactose, and triglycerides were evaluated in milk samples collected on d 28 and d 56.
# (§4) Dam body weight (FIG. 32) and calf body weight (FIG. 34) were analyzed, using the MIXED procedure of SAS specific for repeated measures with treatment and time as fixed effects and replicate as a random effect. Dam prolactin, calf birth weight (FIG. 33), milk volume (FIGS. 35 and 37), and milk weight (FIGS. 36 and 38) were analyzed using the MIXED procedure of SAS with treatment as a fixed effect and replicate as a random effect.
# [5] = system: pregnant heifers consuming endophyte-infected (E+) tall fescue seed and their offspring; assay: Example 1: gestation length and body weights of calves born to dams fed tall fescue seed with or without melatonin; format: in vivo, cattle
# Text: Fifty-seven (n=57) pregnant heifers artificially inseminated with sex-sorted semen (X chromosome-bearing sperm) from a single Angus sire were maintained at the Savoy Unit at the University of Arkansas on Bermuda grass pastures and supplemented as needed during the first 4-5 months of gestation. After that time, pregnant heifers were housed in a barn at the Savoy Unit (FIG. 1) having a controlled feeding system (SmartFeed Pro, C-Lock, Inc.). The controlled feeding system used radio frequency identification to control feed mixtures and intake for heifers.
# as §2, §3
# Calf body weight was recorded at birth, and calves were tagged for identification purposes. Blood samples were collected from calves at 12±2 days of age via jugular venipuncture (four 10 mL purple top tubes and one 4 mL purple top tube). At weaning, body weight was recorded, and blood samples were collected via jugular venipuncture (four 10 mL purple top tubes and one 4 mL purple top tube). Vaccinations were administered to calves according to normal procedures at the Savoy Unit. Heifers and calves were maintained according to standard procedures at the Savoy Unit and the Physiology Farm.
# Calves were weaned at 226±19 d of age. Gestation length, calf birth weight, 205-day adjusted weaning weight (205-d WW), carcass ultrasonography measures (ribeye area, REA: REA/CWT), percent intramuscular fat (IMF), rib fat thickness (UFAT), rump fat thickness (URUMP), post-weaning weights (recorded every 28 days between weaning and 84 days post-weaning), and post-weaning average daily gain (ADG) (between weaning and 84 days post-weaning) were evaluated in offspring (n=44) (FIGS. 6-13). Post-weaning calf weights were analyzed using the MIXED procedure of SAS specific for repeated measures with treatment and time as fixed effects and replicate as random. […]
# [6] = system: steer calves of pregnant beef cattle grazing toxic, endophyte-infected tall fescue (E+); assay: Example 3: body weight of steer calves born to dams grazing E+ fescue with melatonin supplementation; format: in vivo; conditions: for Calf weight: raw group average
# Text: The same artificially inseminated cows were used in Example 3 that were used Example 2. As outlined above in Example 2, forty-nine (n=49) multiparous crossbred beef cows were artificially inseminated with sex-sorted semen (Y chromosome-bearing sperm) from a single Angus sire and maintained on pastures free from E+ fescue prior to the start of the treatment period. Pregnant cows were stratified into three treatment groups based on body weight, with two replications per treatment: non-toxic, novel endophyte-infected (NE+) tall fescue without melatonin supplementation (NE+/NM; n=15), E+ fescue with melatonin supplementation (E+/M; n=16), and E+ fescue without melatonin supplementation (E+/NM; n=18). The treatment period was over 70 d between May and July (d 147±1 to 217-1 of gestation). A commercially available feed was mixed with melatonin (100 μg/kg BW) or without melatonin and hand-fed to each cow daily. At the conclusion of the treatment period (56±18 d before parturition), cattle were moved to a single group and maintained on pastures free from E+ fescue, where they remained through weaning.
# After birth, calves were castrated within 48-72 hours. Dams and steer calves were weighed every 28 days relative to calving (FIG. 31): i.e., at d 0, 28, 56, 84, 112, 140, and 168 (d 0=calving, <24 h). Table 3 depicts calf weight at preweaning, postweaning, and feedlot for NE+/NM, E/+M, and E/+NM (respectively, green, yellow, and red in FIG. 34B). Four-hour milk yields on d 28±3 and d 56±3 were used to estimate daily milk volume and weight. Protein, lactose, and triglycerides were evaluated in milk samples collected on d 28 and d 56.
# as §4
# [7] = cows on E+ fescue with melatonin, d 68±1 of treatment
# [8] = calves at weaning, melatonin main-effect mean, LS mean
# [9] = calves, melatonin main-effect mean, dams 100 μg/kg BW for 70 d, LS mean
compound,measurement,setting,value
COc1ccc2[nH]cc(CCNC(C)=O)c2c1 [melatonin],Coccygeal artery PI (pulsatility index),[1]; [7],0.86±0.1
same,Coccygeal artery RI (resistance index),[1]; [7],0.53±0.02
same,effects on uterine and coccygeal artery hemodynamics,[1]; pregnant multiparous crossbred beef cows grazing endophyte-infected tall fescue,limited effects
same,IMF (percent intramuscular fat),[2]; [8],2.60%
same,REA (ribeye area),[2]; [8],5.87 in.^2
same,UFAT (rib fat thickness),[2]; [8],0.08 in.
same,URUMP (rump fat thickness),[2]; [8],0.08 in.
same,"ribeye area, toxic fescue seed with melatonin compared to toxic fescue seed without melatonin",[2]; fescue × melatonin interaction,increased
same,Prolactin (plasma),[3],86.9 ± 14.9 ng/mL
same,estimated daily milk volume relative to NE+/NM dams,[4],decreased
same,estimated daily milk weight relative to NE+/NM dams,[4],decreased
same,calf weight at weaning recovered by feeding melatonin,"[5]; Example 1, first-calf heifers, statistically adjusted means",approximately 53 lbs.
same,share of the loss in calf weight at weaning recovered by feeding melatonin,"[5]; Example 1, loss approximately 68 lbs., statistically adjusted means",over 75%
same,"birth weight of offspring, dams receiving melatonin relative to those without",[5]; P=0.02 as printed in text,increased
same,205-d WW (205-day adjusted weaning weight),[5]; [9],176.95 kg
same,Birth Weight,[5]; [9],25.90 kg
same,"205-d weaning weight, toxic fescue seed with melatonin compared to toxic fescue seed without melatonin",[5]; fescue × melatonin interaction,increased
same,"post-weaning calf weight, toxic fescue seed with melatonin compared to toxic fescue seed without melatonin",[5]; fescue × melatonin interaction,increased
same,Gestation Length,"[5]; melatonin main-effect mean (E- and E+ diets pooled), 100 μg/kg BW in feed for 70 d mid-late gestation, LS mean",272.00 days
same,Calf weight,[6]; Birth,74.43 lbs.
same,Calf weight,[6]; D 28,148.07 lbs.
same,Calf weight,[6]; D 56,212.07 lbs.
same,Calf weight,[6]; D 84,278.46 lbs.
same,Calf weight,[6]; D 112,347.15 lbs.
same,Calf weight,[6]; D 140,409.15 lbs.
same,Calf weight,[6]; D 168,476.77 lbs.
same,Calf weight,[6]; D 196,535.31 lbs.
same,Calf weight,[6]; D +28 Post-Weaning,641.23 lbs.
same,Calf weight,[6]; D +56 Post-Weaning,703.69 lbs.
same,Calf weight,[6]; D +84 Post-Weaning,766.62 lbs.
same,Calf weight,[6]; D +112 Post-Weaning,852.92 lbs.
same,Calf weight,[6]; Feedlot - October 29,1003.33 lbs.
same,Calf weight,[6]; Weaning,622.31 lbs.
same,share of the loss in calf weight recovered by feeding melatonin,"[6]; second study, 28 days prior to weaning, loss 28 lbs., statistically adjusted means",over 65%
same,calf weight recovered by feeding melatonin,"[6]; second study, 28 days prior to weaning, multiparous cows, statistically adjusted means",approximately 19 lbs.
